The experiment concerns SCLC cell lines. The experiment in a line: 96 hr proliferation assay in SCLC cell lines. In kind it is cell-based. Conditions: for response to single agent ATR inhibitor: the three cell lines with greater than additive response to the combination, SLFN11 low group.

The structures appear in SMILES notation.

Turning to `COc1ccc2[nH]c3c(c2c1)CCN[C@]31CS[C@@H]2c3c(OC(C)=O)c(C)c4c(c3[C@H](COC1=O)N1[C@@H]2[C@H]2c3c(cc(C)c(OC)c3O)C[C@@H]([C@@H]1O)N2C)OCO4` [lurbinectedin], the “lurbinectedin IC50 values” (cells with low expression of SLFN11 (FIG. 1)) is on record as “higher”.

For the molecule `CNCc1ccc(-c2cc(-c3nc(-c4ccc(S(=O)(=O)C(C)C)cc4)cnc3N)on2)cc1` [berzosertib], the “response to single agent ATR inhibitor” value is “relatively resistant”.

For the molecule `C[C@@H]1COCCN1c1cc(C2([S@](C)(=N)=O)CC2)nc(-c2cc[nH]c3nccc2-3)n1` [ceralasertib], the “response to single agent ATR inhibitor” value was “relatively resistant”.

Source of the values: US20240058334A1, “METHODS FOR TREATING SMALL CELL LUNG CANCER AND OTHER NEUROENDOCRINE CANCERS” (AstraZeneca AB, priority 2021, published 2024).
